The text below walks through data of patent publication US20040039014A1, “Methods and compounds for treating depression and other disorders” (NPS Pharmaceuticals, Inc., priority 1998, published 2004).

For test [1], the target named is T1, dopamine transporter site (Cavia porcellus, UniProt H0WCX4).
T1 construct: tissue NovaScreen (performed the assay); host or cells: guinea pig striatal membranes
Briefly: Dopamine reuptake inhibition assay ([3H]WIN 35428 binding, guinea pig striatal membranes). How it is done: (§1) Monoamine Transporter Minding Assays
(§2) Monoamine transporter binding assays (reuptake inhibition assays) were performed by NovaScreen using standard radioligand binding assays. The transporter binding assays are described briefly below:
Dopamine Reuptake Inhibition Assay:
Reactions were terminated by rapid vacuum filtration onto glass fiber filters. Bound radioactivity was determined using liquid scintillation spectrometry and experimental values were compared to control values to determine binding to the dopamine transporter site based on Madras, et al., Molec.

Test [2] addresses T2, NMDA receptor.
T2 construct: rat cortex membranes
The test is described as follows: [3H]MK-801 binding assay (rat cortex synaptic plasma membranes). Conditions: read-out: [3H]MK-801 data IC50, Table I. How it is done:
Synaptic plasma membranes (SPMs) from rat cortex were prepared as follows. Isolated cerebral cortices from male and female rats were purchased from Pel-Freez (Rogers, Ariz.) in bulk, and stored at −80° C. The cortices from 25 rats were thawed and pooled. […] The resulting homogenates were centrifuged for 10 min at 1,000×g in a T865 rotor, UltraPro80 Sorvall Centrifuge. The supernatant was removed and subsequently centrifuged at 30,000×g for 30 min. […] Membranes were washed by re-suspension in 500 ml of 5 mM K-EDTA (pH 7.0), incubated at 32° C. for 30 min with stirring, and centrifuged at 100,000×g for 30 min. The final pellet was resuspended in 60 ml of […] K-EDTA (pH 7.0) and stored in aliquots at −80° C. The extensive washing procedure utilized in this assay was designed to minimize the concentrations of glutamate and glycine (co-agonists at the NMDA receptor-ionophore complex) present in the membrane preparation.
On the day of assay, aliquots of SPM were thawed and resuspended in 75 vols of 5 mM K-EDTA, pH 7.0. SPM were centrifuged at 100,000×g for 30 min at 4° C.
The SPM pellet was resuspended in assay buffer (30 mM EPPS, 1 mM K-EDTA, pH 7.0) by polytron. […] Binding was started by the addition of the tissue homogenate. The assay was terminated by the addition of 4 ml ice-cold buffer, followed by filtration over glass-fiber filters (Schleicher & Schuell No. 30) on a Millipore 12-well filtration manifold. Filters were washed with another 3 ×4 ml ice-cold buffer (pH 7.0). Radioactivity on the filters was measured using Fisherbrand Scinti-Safe scintillation cocktail. Samples were shaken for 45-60 min on a shaker platform to solubilize the radioactivity. Counting for ^3H was performed in a Beckman 6000IC LS Scintillation Counter for 4 min per sample.

Test [3] has as its system T3, NMDA receptor.
T3 construct: fura2 data IC50; rat cerebellar granule cells
Briefly: NMDA receptor assay (fura-2 cytosolic calcium in cultured rat cerebellar granule cells). In kind it is cell-based. Conditions: Table I, read-out: fura2 data IC50. How it is done: All culture media, antibiotics, and enzymes, with the exception of fetal calf serum (Hyclone Laboratories, Logan, Utah), were purchased from Sigma Chemical Co., St. Louis, Mo. Fura-2/AM was obtained from Molecular Probes, Eugene, Oreg., and was prepared freshly in dimethylsulfoxide (DMSO) before use. Ionomycin (Calbiochem) was stored as a stock solution in DMSO. Nifedipine (Sigma) and nimodipine (RBI) were dissolved in absolute ethanol. […] All other agents were dissolved in phosphate-buffered saline (PBS), and adjusted to pH 7.4
Preparation of Rat Cerebellar Granule Cell (RCGC) Cultures
Briefly, primary cultures of cerebellar granule neurons were obtained from 8-day-old rats and plated onto squares of Aclar plastic coated with poly-L-lysine. The plastic squares were placed in 12-well culture plates, and ˜7.5×10^5 cells were added to each well. Cultures were maintained in Eagles's medium containing 25 mM KCl, 10% fetal calf serum, 2 mM glutamine, 100 μg/ml gentamicin, 50 U/ml penicillin, and 50 μg/ml streptomycin at 37° C. in a humid atmosphere of 5%CO2 in air for 24 hr before the addition of cytosine arabinoside (10 μM, final). No changes of culture medium were made until the cells were used for fluorescence recording 6-8 days after plating.
Measurement of Cytosolic Calcium
(“Ca^2+-free” buffer contained no added CaCl2 and 30 μM EGTA). The cells were then rinsed with the same buffer, lacking fura-2/AM, and maintained at room temperature until used for measurement of fluorescence, the Aclar squares were transferred into quartz cuvettes containing 2 ml of the HEPES buffer. The cuvette was then placed into a thermostatted holder equipped with a magnetic stirrer in a custom-built spectrofluorimeter (Biomedical Instrumentation Group, University of Pennsylvania, Philadelphia, Pa.). The size of the plastic Aclar square was such as to fit snugly in the cuvette when placed at a diagonal and therefore suspend itself over the spin bar. Fluorescence was measured using excitation and emission wavelengths of 340 and 510 nm, respectively. The amplitude of the evoked increase in fluorescence and subsequent inhibition were recorded and the concentration of [Ca^2+]i was calculated using the formula:
[Ca^2+]=Kd (F-Fmin)/(Fmax-F) (Eq. 1)
F=fluorescence amplitude evoked at a particular time point or concentration of compound;
Fmin=minimum fluorescence determined after the addition of a 2.5 M TRIS/0.3 M EGTA solution;
Fmax=maximum fluorescence determined following the addition of 7 mM ionomycin in DMSO; and […]

Test [4] concerns the target T4, serotonin transporter site (Rattus norvegicus, UniProt P31652).
T4 construct: tissue NovaScreen (performed the assay); host or cells: rat forebrain membranes
Briefly: Serotonin reuptake inhibition assay ([3H]citalopram binding, rat forebrain membranes). How it is done:
as §1, §2
Serotonin Reuptake Inhibition Assay
Rat forebrain membranes were incubated with 0.7 nM [^3H] citalopram, N-methyl, (70-87 Ci/mmol)in 50 mM Tris-HCl (pH 7.4), 120 mM NaCl, and 5 mM KCl at 25° C. for 60 minutes. […] Reactions were terminated by rapid vacuum filtration onto glass fiber filters.

For test [5], the target named is T5, norepinephrine transporter site (Rattus norvegicus, UniProt Q63380).
T5 construct: tissue NovaScreen (performed the assay); host or cells: rat forebrain membranes
T5 sequence (Q63380 1-617): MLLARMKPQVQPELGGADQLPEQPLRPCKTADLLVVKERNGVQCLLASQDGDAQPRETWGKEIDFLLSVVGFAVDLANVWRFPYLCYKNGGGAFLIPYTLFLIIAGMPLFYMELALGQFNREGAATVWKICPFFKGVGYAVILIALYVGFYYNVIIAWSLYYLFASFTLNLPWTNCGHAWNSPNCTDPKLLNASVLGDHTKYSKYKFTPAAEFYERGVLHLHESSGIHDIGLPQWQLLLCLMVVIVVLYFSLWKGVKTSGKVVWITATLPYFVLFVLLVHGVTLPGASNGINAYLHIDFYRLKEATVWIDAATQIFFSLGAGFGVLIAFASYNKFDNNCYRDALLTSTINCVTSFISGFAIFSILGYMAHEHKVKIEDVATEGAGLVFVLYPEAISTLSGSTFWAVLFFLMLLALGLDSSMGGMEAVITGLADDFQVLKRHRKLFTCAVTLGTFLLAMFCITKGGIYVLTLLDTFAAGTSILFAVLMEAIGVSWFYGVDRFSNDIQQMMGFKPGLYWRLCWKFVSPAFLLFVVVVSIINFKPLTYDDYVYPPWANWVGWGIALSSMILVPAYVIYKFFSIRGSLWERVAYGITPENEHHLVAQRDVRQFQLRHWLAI
Briefly: Norepinephrine reuptake inhibition assay ([3H]nisoxetine binding, rat forebrain membranes). How it is done:
as §1, §2
Norepinephrine Reuptake Inhibition Assay
Reactions were terminated by rapid vacuum filtration onto glass fiber filters.

The subject of another test is male NMRI-CERJ mice. The test is described as follows: Automated tail-suspension test in mice (Compound 19). In kind it is in vivo, mouse. Conditions: 16 mg/kg i.p., 30 min prior to testing; p<0.001. How it is done: In this test, the animal is suspended by the tail for 6 minutes. The behavior of the animal is recorded automatically using a special computerized apparatus which measures two parameters, the duration of immobility and the power of the movements. Ten animals are studied per dose group. […] This test, which is a variant of the behavioral despair test, is based on the assumption that animals faced with an insoluble aversive situation will alternate between phases of activity (searching to escape) and immobility (waiting, “despairs”).

A further test relates to male Sprague-Dawley rats. The test is described as follows: Rat forced-swim test (FST). In kind it is in vivo. Conditions: Table VI; 10 mg/kg i.p., 30 minutes prior to testing; saline control 47.9. How it is done: (§3) For the mouse and rat forced-swim tests, male pathogen-free NIH-Swiss mice (Harlan Sprague-Dawley) weighing between 22-25 g, and male pathogen-free Sprague-Dawley rats (Harlan Sprague-Dawley) weighing between 320-350 g were used. Animals were removed from the housing room to the testing area in their own cages and allowed to adapt to the new environment for at least 1 hour before testing. Mice were administered either drug (imipramine, 10 mg/kg i.p.; or Compound 60, various p.o or i.p. doses) or saline. Thirty minutes to 24 hours later, mice were placed individually in cylinders (diameter: 10 cm; height: 25 cm) filled with 6 cm of water (22-25° C.) for 6 minutes. The duration of immobility during the last 4 minutes of the 6 minute test was scored. A mouse was recorded as immobile when floating motionless or making only those movements necessary to keep its head above water. Results were expressed as the duration of immobility (seconds).
The rat forced-swim test was conducted over two days. On treatment Day 1, rats were placed individually in cylinders (diameter: 18 cm; height: 40 cm) filled with water (22-25° C.) to a depth of 15 cm for 15 minutes. The duration of immobility during the first 5 minutes was scored. After testing, the rats were dried with paper towels and placed in holding cages. Five minutes after removal from the testing cylinders, animals received either drug (imipramine, 10 mg/kg i.p.; or Compound 60, various p.o. doses) or saline (p.o.). Ten minutes later, the rats were returned to their home cages. […] The duration of immobility during the first 5 minute period was recorded. A rat was recorded as immobile when floating motionless or making only those movements necessary to keep its head above water. […]

Another test relates to male C57BL/6 mice. The test is described as follows: Mouse tail-suspension test (TST) with Compound 60. In kind it is in vivo. How it is done: For the mouse tail-suspension test with Compound 60, male pathogen-free C57BL/6 mice (Harlan Sprague-Dawley) weighing between 22-25 g were used. Animals were removed from the housing room to the testing area in their own cages and allowed to adapt to the new environment for at least 1 hour before testing. Mice were administered either drug (imipramine, 15 mg/kg i.p.; or Compound 60, various p.o. doses) or saline. Thirty minutes to 24 hours later, the mice were suspended on the edge of a shelf 80 cm above the floor in the testing room by adhesive tape placed approximately 1 cm from the tip of the tail. The duration of immobility was recorded during a test period of 5 minutes. Mice were considered immobile only when they hung passively and completely motionless. Results were expressed as the duration of immobility (sec).

The test system of the next test is male NIH-Swiss mice. The test is described as follows: Mouse forced-swim test (FST). In kind it is in vivo. Conditions: 10 mg/kg i.p. single dose 30 minutes prior to testing. How it is done: as §3
[6] abbreviates: Table I, read-out: 5-HT Uptake Ki.

Read-outs that look alike come from different tables or passages of the source. Marks after values point to notes of the source that are not given here.

T1 sequence (H0WCX4 1-619): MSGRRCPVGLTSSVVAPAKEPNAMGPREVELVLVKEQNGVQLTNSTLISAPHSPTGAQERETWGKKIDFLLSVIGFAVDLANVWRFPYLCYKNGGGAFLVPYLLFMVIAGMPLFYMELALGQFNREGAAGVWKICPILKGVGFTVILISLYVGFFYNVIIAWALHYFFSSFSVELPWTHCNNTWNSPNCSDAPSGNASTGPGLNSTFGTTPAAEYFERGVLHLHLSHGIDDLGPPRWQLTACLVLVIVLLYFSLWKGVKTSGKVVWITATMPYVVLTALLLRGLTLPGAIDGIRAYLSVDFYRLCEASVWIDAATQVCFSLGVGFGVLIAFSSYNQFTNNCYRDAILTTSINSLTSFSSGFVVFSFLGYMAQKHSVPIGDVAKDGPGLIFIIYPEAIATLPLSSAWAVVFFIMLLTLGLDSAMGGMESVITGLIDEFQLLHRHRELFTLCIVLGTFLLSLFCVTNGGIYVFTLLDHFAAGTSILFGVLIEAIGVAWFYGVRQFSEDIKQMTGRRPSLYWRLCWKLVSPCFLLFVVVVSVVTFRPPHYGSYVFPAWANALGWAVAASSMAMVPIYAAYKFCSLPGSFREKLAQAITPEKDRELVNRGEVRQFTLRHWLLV
T4 sequence (P31652 whole entry): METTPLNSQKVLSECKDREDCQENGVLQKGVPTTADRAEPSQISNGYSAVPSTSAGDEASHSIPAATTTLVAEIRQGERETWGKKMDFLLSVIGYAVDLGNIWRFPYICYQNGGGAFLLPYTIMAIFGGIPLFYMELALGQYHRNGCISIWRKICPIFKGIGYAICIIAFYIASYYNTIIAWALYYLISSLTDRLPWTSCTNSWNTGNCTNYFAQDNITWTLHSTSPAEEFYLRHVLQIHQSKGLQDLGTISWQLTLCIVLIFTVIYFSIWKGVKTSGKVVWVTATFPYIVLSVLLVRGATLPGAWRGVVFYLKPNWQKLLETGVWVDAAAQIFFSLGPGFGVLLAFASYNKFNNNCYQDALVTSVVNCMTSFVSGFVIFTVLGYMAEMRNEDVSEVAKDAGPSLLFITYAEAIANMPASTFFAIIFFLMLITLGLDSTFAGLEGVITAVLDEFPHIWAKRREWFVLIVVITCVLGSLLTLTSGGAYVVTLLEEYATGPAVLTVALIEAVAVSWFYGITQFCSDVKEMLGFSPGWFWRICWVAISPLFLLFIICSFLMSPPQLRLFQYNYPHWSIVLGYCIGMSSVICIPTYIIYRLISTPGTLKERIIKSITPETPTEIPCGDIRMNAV

For orientation: Ki means the equilibrium dissociation constant of an inhibitor or competing ligand from its target. By IC50 is commonly meant the concentration needed to halve the response being measured. Consider `C[C@@H](CN)C(c1cccc(F)c1)c1cccc(F)c1` [Compound 33], for which the Ki in [1] turned out to be 0.826 µM; in [4] (setting [6]), 1.2 µM; in test [5], 3.8 µM. Also, the figures for the IC50 on NMDA receptor [2] and in the test on NMDA receptor [3] were 0.181 µM and 0.06 µM, respectively.

For the compound `C[C@H](N)CC(c1cccc(F)c1)c1cccc(F)c1` [Compound 50], the Ki was 1.8 µM in test [1], 0.045 µM in [4] (setting [6]) and 0.107 µM in [5]. The figures for the IC50 on NMDA receptor [2] and in the test on NMDA receptor [3] were 0.762 µM and 0.089 µM, respectively.

Consider `C[C@H](CN)C(c1cccc(F)c1)c1cccc(F)c1` [Compound 34], for which the Ki in test [1] was found to be 0.602 µM; in test [4] (setting [6]), 2.1 µM; in [5] it was 3 µM. The IC50 was 2.7 µM at NMDA receptor [2] and 0.426 µM in the test on NMDA receptor [3].

As for `CNCCC(c1ccccc1)c1ccccc1` [Compound 67], the IC50 was found to be 2.9 µM on NMDA receptor [2] and 11 µM with NMDA receptor [3].

As to `NCCC(Oc1cccc(F)c1)c1ccccc1` (centres unmarked) [Compound 137], in the test with NMDA receptor [3], the IC50 came to 0.232 µM.

As to `Fc1cccc(C(c2cccc(F)c2)C2CCCNC2)c1` (centres unmarked) [Compound 111], the Ki was 0.03 µM in test [1], 0.6 µM in test [4] and 0.124 µM in test [5]. Further, the IC50 at NMDA receptor [2] worked out at 0.167 µM; in the test with NMDA receptor [3] it was 0.645 µM.

Take `NCCC(c1ccccc1)c1ccccc1` [Compound 19]: the IC50 at NMDA receptor [2] was found to be 2.1 µM. In addition, the “increase in the power of movements” value with male NMRI-CERJ mice is reported as 275%.

`NCCC(c1cccc(F)c1)c1cccc(F)c1` [Compound 20]: the Ki in test [1] was found to be 3 µM; in [4] (setting [6]), 0.256 µM; in [5], 0.312 µM. Also, the IC50 on NMDA receptor [2] was 0.252 µM; in the test with NMDA receptor [3] it was 0.07 µM.

Turning to `CN(C)CCCN1c2ccccc2CCc2ccccc21` [Imipramine, reference compound], in the test on male Sprague-Dawley rats, the “Mean Change in the Duration of Immobility (Day 2 minus Day 1)” value is recorded as −23.3* sec. For the same compound, the “Mean duration of immobility” value with male C57BL/6 mice (Table VII, positive control, 15 mg/kg i.p. 30 minutes prior to testing, saline control 154.9) is recorded as 103.6* sec; in the test on male NIH-Swiss mice (Table IV, saline control 129.7) it was 53.4* sec; in the test with male NIH-Swiss mice (Table V, saline control 137.8), 72.5* sec. For the same compound, in the test on male C57BL/6 mice (Table VIII (experiment #1), 15 mg/kg i.p. single dose 30 minutes prior to testing, saline control 210.1), the “Duration of Immobility” value is recorded as 133.9* sec.
